Results taken from patent US10947129B2, “Fluid disinfection with ultraviolet radiation and a chemical disinfectant” (Trojan Technologies, priority 2015, dated 2021).
Entries after “also recorded” stand apart in the source; their conditions may differ.

What was measured:
[1] = test system: E. coli; assay: E. coli inactivation by PAA alone in WWTP secondary effluent (bench test); format: cell-based, Escherichia coli
Method: (§1) In this study, secondary effluent samples were collected and treated with PAA to achieve residual concentration*contact time (CTs) of 2.5-50 mg·min/L. PAA tests were conducted in clean glass beakers (500 or 2000 mL), and mixed continuously using a magnetic stirrer (600 rpm). Measurements of PAA residuals were collected over time, and E. coli samples were collected following PAA quenching using sodium bisulfite. The four samples collected between September 22-24 were each treated with PAA (CO=5.0 mg/L) in order to estimate the demand/decay for each sample. […] The demand/decay kinetic parameters were recalculated using the experimental results from each inactivation experiment.
[formula] where, • CT is the integral PAA dose (concentration*contact time); mg·min/L (Santoro et al., 2015) PAA and UV Disinfection Kinetics
To develop an disinfection kinetic model, the concentration of viable for E. coli can be plotted against either PAA—CT dose or UV fluence and the data fitted using the double exponential inactivation model, described in Equation 3. […]
The E. coli inactivation kinetics by PAA was calculated for each sample by plotting the viable concentration of E. coli on a log scale (y-axis) against the PAA—CT dose (x-axis), and is shown in FIG. 11. […]

[2] = PAA demand/decay in WWTP secondary effluent (Equation 1 fit); format: physicochemical; details: for Decay (k, 1/min) / Demand (D, mg/L): PAA only disinfection
Method: as §1
PAA residuals were fitted to a demand/decay curve using Equation 1. The PAA CT (mg·min/L) was determined by integrating the area under the demand/decay curve and is calculated using Equation 2. C=(C0−D)e^−kt [Equation 1] where, • C is the concentration of PAA (mg/L) at time t (min) • C0 is initial concentration of PAA (mg/L) • D is the instantaneous demand of PAA (mg/L) • k is the decay rate constant of PAA (1/min) • t is the contact time (min)

[3] = test system: E. coli; assay: Combined UV and PAA disinfection tests on WWTP secondary effluent; format: cell-based, Escherichia coli
Source text: For the UV+PAA experiment, effluent was first irradiated to UV fluences of 10, 15 or 20 mJ/cm^2, then dosed with PAA as described above. For the PAA+UV experiment, effluent was first dosed with PAA as described above. After set durations, portions of the sample were removed, PAA quenched with sodium bisulfite, and then subjected to UV fluences of 10, 15 or 20 mJ/cm^2. For the simultaneous PAA+UV experiment, two different scenarios were investigated. The first involved dosing PAA at the onset of UV irradiation, irradiating for a set duration, and then removing the sample from UV exposure and continuing to stir until a desired PAA contact time was achieved. The second scenario involved first dosing PAA and allowing it to stir for a period prior to subjecting it to UV irradiation.
Three distinct scenarios were performed with respect to testing the combined UV and PAA disinfection processes: UV prior to PAA (UV→PAA), PAA prior to UV (PAA→UV), simultaneous UV and PAA (UV+PAA). For the UV→PAA tests, UV fluences of 10, 15, and 20 mJ/cm^2 were applied prior to PAA addition, and PAA CTs ranged from 5-25 mg·min/L. Each of FIGS. 14-26 illustrates the results for viable E. coli as a function of PAA CT exposure with different levels of UV fluence applied, prior to PAA treatment.

[4] = low UV fluence (13 mJ/cm^2), PAA added before or after UV irradiation; cited from earlier work
[5] = test system: total coliform; details: cited from earlier work

For CC(=O)OO [PAA, peracetic acid], the “PAA CT dose required to meet disinfection target” value ([1]; target 63 MPN/100 mL (half the 30-day geomean permit), model from all data) was 49.2 mg·min/L, the “PAA CT dose required to meet disinfection target” value ([1]; target 244 MPN/100 mL (half the daily maximum permit), model from poorest inactivation data) was 36.0 mg·min/L and the “Decay (k, 1/min)” value ([2]; sample Sept. 22 - AM) was 0.063 min⁻¹. For the same compound, the “Demand (D, mg/L)” value ([2]; sample Sept. 22 - AM) was 3.58 mg/L, the “Decay (k, 1/min)” value ([2]; sample Sept. 22 - PM) was 0.057 min⁻¹ and the “Demand (D, mg/L)” value ([2]; sample Sept. 22 - PM) was 2.60 mg/L. For the same compound, the “Decay (k, 1/min)” value ([2]; sample Sept. 24 - AM) was 0.056 min⁻¹, the “Demand (D, mg/L)” value ([2]; sample Sept. 24 - AM) was 3.50 mg/L and the “Decay (k, 1/min)” value ([2]; sample Sept. 24 - PM) was 0.058 min⁻¹. The “Demand (D, mg/L)” value ([2]; sample Sept. 24 - PM) was 2.91 mg/L, the decay rates ([2]; all samples) was “ca. 0.060 l/min” and the PAA demand ([2]; samples collected in the afternoon) was “ca. 2.75 mg/L”. For the same compound, the PAA demand ([2]; samples collected in the morning) was “ca. 3.5 mg/L”, the “attainment of E. coli disinfection targets” value ([3]; PAA prior to UV (PAA→UV), PAA CT 10-23 mg·min/L, UV 10, 15, 20 mJ/cm^2) was “did NOT always result in the geometric mean or maximum disinfection targets being met” and the “attainment of E. coli disinfection targets” value ([3]; UV prior to PAA (UV→PAA), UV 10, 15, 20 mJ/cm^2, PAA CT 5-25 mg·min/L) was “both the maximum and geometric mean disinfection targets being met for at least one combination of fluence and CT; also recorded: consistently met disinfection targets”. For the same compound, the “attainment of E. coli disinfection targets” value ([3]; simultaneous UV+PAA, UV 10, 15, 20 mJ/cm^2, PAA CT 15-30 mg·min/L) was “could not achieve the geomean or maximum disinfection targets”, the “synergistic benefit of PAA combined with UV” value [4] was “no synergistic benefit observed” and the “inactivation of total coliform” value ([5]; PAA 2 mg/L applied immediately before UV fluence of 192 mJ/cm^2) was “over 4 log”. The “attainment of target disinfection levels” value ([5]; PAA concentration between 2 and 8 mg/L, alone) was “unable to reach the target disinfection levels”.
